# Data taken from US4035481A, “Antibiotic A-28086 and process for production thereof” (Eli Lilly and Company, priority 1976, dated 1977).
# How the values were obtained:
# rumen flora = experiment: In vitro rumen fluid incubation, volatile fatty acid production; parameters: species or system steer; settings: 1 ppm in rumen fluid, 16 hours at 38° C
# Source text: As discussed hereinabove, efficiency of carbohydrate utilization in ruminants is increased by treatments which stimulate the animal's rumen flora to produce propionate compounds rather than acetate or butyrate compounds. The efficiency of feed use can be monitored by observing the production and concentration of propionate compounds in the rumen, using the following methods:
# Rumen fluid is obtained from a steer with a surgically-installed fistula opening into the rumen. The steer is maintained on a high-grain ration. A sample of rumen fluid is strained through four layers of cheesecloth, and the filtrate is collected. The particulate matter retained by the cheesecloth is resuspended in enough physiological buffer to return it to the original volume of the rumen fluid, and this suspension is strained again. The buffer used has the following composition:
# The two filtrates are combined and allowed to stand until particulate matter separates to the top. The clear layer is separated, diluted with the same buffer (1:1) and then adjusted to between pH 6.8 to 7.0.
# The diluted rumen fluid (10 ml) is placed in a 25-ml flask with 40 mg of the above-described feed, an additional 1 mg of soybean protein, and the compound to be tested. Four replicate flasks are used per treatment. Two sets of four control flasks each are also employed. A zero-time control and an incubated 16-hour control are used. All test flasks are incubated for 16 hours at 38° C. […] The samples are allowed to settle, and the supernatants are analyzed by gas chromatography for propionate, acetate, and butyrate compounds.
# [1] = Electrometric titration (pKa of titratable group); settings: 80% aqueous dimethylformamide
# Fusarium moniliforme = experiment: Disc-diffusion zone of inhibition, Fusarium moniliforme; format: cell-based; settings: Fusarium verticillioides; 6 mm pads, 1 mg/ml
# M. synoviae = experiment: In vitro broth-dilution MIC, Mycoplasma; format: cell-based; settings: Mycoplasmopsis synoviae
# Source text: (§1) Activity against Mycoplasma is another useful aspect of the antimicrobial activity of the A-28086 compounds. Mycoplasma species, also known as pleuropneumonia-like (PPLO) organisms, are pathogenic to man and various animals. Agents active against PPLO organisms are especially needed by the poultry industry. The minimal inhibitory concentrations (MIC) of antibiotic A-28086 factor A against various Mycoplasma species, as determined by in vitro broth-dilution studies, are summarized in Table VII below: […]
# M. gallisepticum = experiment: In vitro broth-dilution MIC, Mycoplasma; format: cell-based; settings: Mycoplasmoides gallisepticum
# Source text: as §1
# M. hyorhinis = experiment: In vitro broth-dilution MIC, Mycoplasma; format: cell-based; settings: Mesomycoplasma hyorhinis
# Source text: as §1
# [2] = system: Transmissible Gastro-enteritis virus; format: cell-based; settings: tissue-culture test
# Candida tropicalis = experiment: Disc-diffusion zone of inhibition, Candida tropicalis; format: cell-based; settings: 6 mm pads, 1 mg/ml
# [3] = Solubility in organic solvents and water; format: physicochemical
# M. hyosynoviae = experiment: In vitro broth-dilution MIC, Mycoplasma; format: cell-based, Mycoplasma hyosynoviae
# Source text: as §1
# Sarcina lutea ATCC9341 = experiment: Disc-diffusion zone of inhibition, Sarcina lutea ATCC9341; format: cell-based; settings: Micrococcus luteus, 6 mm pads, 1 mg/ml
# M. hypopneumoniae = experiment: In vitro broth-dilution MIC, Mycoplasma; format: cell-based, Mycoplasma hypopneumoniae
# Source text: as §1
# [4] = system: Saccharomyces pastorianum ATCC2366; experiment: Disc-diffusion zone of inhibition, Saccharomyces pastorianum ATCC2366; format: cell-based
# [5] = system: Peptostreptococcus intermedius; experiment: Agar-dilution MIC, anaerobic bacteria; format: cell-based; settings: 24-hour incubation
# Protocol: (§2) The minimal inhibitory concentrations (MIC) at which A-28086 factor A inhibits various anaerobic bacteria, determined by standard agar-dilution assay, are summarized in Table VI. Endpoints were read after 24-hour incubation.
# Veillonella alcalescens = experiment: Agar-dilution MIC, anaerobic bacteria; format: cell-based; settings: Veillonella parvula, 24-hour incubation
# Protocol: as §2
# Actinomyces bovis = experiment: Agar-dilution MIC, anaerobic bacteria; format: cell-based; settings: 24-hour incubation
# Protocol: as §2
# [6] = system: Bacteroides fragilis ssp. vulgatis No. 1563; experiment: Agar-dilution MIC, anaerobic bacteria; format: cell-based; settings: 24-hour incubation
# Protocol: as §2
# [7] = system: Bacteroides fragilis ssp. fragilis; experiment: Agar-dilution MIC, anaerobic bacteria; format: cell-based; settings: 24-hour incubation
# Protocol: as §2
# [8] = system: Clostridium septicum bovine; experiment: Agar-dilution MIC, anaerobic bacteria; format: cell-based; settings: 24-hour incubation
# Protocol: as §2
# Clostridium inocuum = experiment: Agar-dilution MIC, anaerobic bacteria; format: cell-based; settings: 24-hour incubation
# Protocol: as §2
# Clostridium ramosum = experiment: Agar-dilution MIC, anaerobic bacteria; format: cell-based; settings: Thomasclavelia ramosa, 24-hour incubation
# Protocol: as §2
# [9] = system: Fusobacterium necrophorum; experiment: Agar-dilution MIC, anaerobic bacteria; format: cell-based; settings: 24-hour incubation
# Protocol: as §2
# [10] = system: Propionibacterium acnes 44; experiment: Agar-dilution MIC, anaerobic bacteria; format: cell-based; settings: Cutibacterium acnes, 24-hour incubation
# Protocol: as §2
# Fusobacterium symbiosum = experiment: Agar-dilution MIC, anaerobic bacteria; format: cell-based; settings: 24-hour incubation
# Protocol: as §2
# [11] = system: Bacteroides fragilis ssp. vulgatis 1211; experiment: Agar-dilution MIC, anaerobic bacteria; format: cell-based; settings: 24-hour incubation
# Protocol: as §2
# [12] = system: Bacteroides fragilis ssp. thetaiotacmicron; experiment: Agar-dilution MIC, anaerobic bacteria; format: cell-based; settings: 24 h
# Protocol: as §2
# [13] = system: Propionibacterium acnes 79; experiment: Agar-dilution MIC, anaerobic bacteria; format: cell-based; settings: Cutibacterium acnes, 24-hour incubation
# Protocol: as §2
# Clostridium septicum = experiment: Agar-dilution MIC, anaerobic bacteria; format: cell-based; settings: 24-hour incubation
# Protocol: as §2
# Eubacterium aerofaciens = experiment: Agar-dilution MIC, anaerobic bacteria; format: cell-based; settings: Collinsella aerofaciens, 24-hour incubation
# Protocol: as §2
# Peptococcus anaerobius = experiment: Agar-dilution MIC, anaerobic bacteria; format: cell-based; settings: 24-hour incubation
# Protocol: as §2
# [14] = system: Bacillus subtilis ATCC6633; experiment: Disc-diffusion zone of inhibition, Bacillus subtilis ATCC6633; format: cell-based; settings: 6 mm pads, 1 mg/ml
# Clostridium perfringens = experiment: microbe, parasite or virus in culture; format: cell-based; settings: 24 h
# Staphylococcus aureus = experiment: Disc-diffusion zone of inhibition, Staphylococcus aureus; format: cell-based; settings: 6 mm pads, 1 mg/ml
# sheep = experiment: Feed-utilization efficiency in sheep; format: in vivo; settings: 56 days
# [15] = system: Mycobacterium avium ATCC7992; experiment: Disc-diffusion zone of inhibition, Mycobacterium avium ATCC7992; format: cell-based; settings: 6 mm pads, 1 mg/ml
# [16] = Acute toxicity in mice, intraperitoneal; settings: mouse, in vivo, ip
# Eimeria brunetti = experiment: Anticoccidial activity in chicks challenged with Eimeria brunetti (Table IX); format: in vivo, broiler cockerels; settings: 0.005 % in feed
# Source text: ^1 Four replicates, 5 broiler cockerels each
# [17] = Microbiological activity of A-28086-I
structure (smiles),measurement,setting,value
CCCC(=O)OC1C=CC2(OC(C(CC)C(=O)C(C)C(O)C(C)C3OC(C(CC)C(=O)O)C(C)CC3C)C(C)CC2C)OC12CCC(C)(C1CCC(O)(CC)C(C)O1)O2 (centres unmarked),"Ratio of Treated to Control, Molar % acetate",rumen flora,0.91
same,"Ratio of Treated to Control, Molar % butyrate",rumen flora,0.81
same,"Ratio of Treated to Control, Total VFA mM/1",rumen flora,1.19
CCCCCC(=O)OC1C=CC2(OC(C(CC)C(=O)C(C)C(O)C(C)C3OC(C(CC)C(=O)O)C(C)CC3C)C(C)CC2C)OC12CCC(C)(C1CCC(O)(CC)C(C)O1)O2 (centres unmarked),"Ratio of Treated to Control, Molar % acetate",rumen flora,0.86
same,"Ratio of Treated to Control, Molar % butyrate",rumen flora,0.97
same,"Ratio of Treated to Control, Total VFA mM/1",rumen flora,0.99
CCC(=O)OC1C=CC2(OC(C(CC)C(=O)C(C)C(O)C(C)C3OC(C(CC)C(=O)O)C(C)CC3C)C(C)CC2C)OC12CCC(C)(C1CCC(O)(CC)C(C)O1)O2 (centres unmarked),"Ratio of Treated to Control, Molar % acetate",rumen flora,0.90
same,"Ratio of Treated to Control, Molar % butyrate",rumen flora,0.68
same,"Ratio of Treated to Control, Total VFA mM/1",rumen flora,1.25
CCCCC(=O)OC1C=CC2(OC(C(CC)C(=O)C(C)C(O)C(C)C3OC(C(CC)C(=O)O)C(C)CC3C)C(C)CC2C)OC12CCC(C)(C1CCC(O)(CC)C(C)O1)O2 (centres unmarked),"Ratio of Treated to Control, Molar % acetate",rumen flora,0.92
same,"Ratio of Treated to Control, Molar % butyrate",rumen flora,0.79
same,"Ratio of Treated to Control, Total VFA mM/1",rumen flora,1.18
CCC(C(=O)O)C1OC(C(C)C(O)C(C)C(=O)C(CC)C2OC3(C=CC(OC(C)=O)C4(CCC(C)(C5CCC(O)(CC)C(C)O5)O4)O3)C(C)CC2C)C(C)CC1C (centres unmarked) [A-28086 factor A acetyl ester derivative],pKa,[1],8.5
same,"Ratio of Treated to Control, Molar % acetate",rumen flora,0.79
same,"Ratio of Treated to Control, Molar % butyrate",rumen flora,0.76
same,"Ratio of Treated to Control, Total VFA mM/1",rumen flora,1.04
CCC(C(=O)O)C1OC(C(C)C(O)C(C)C(=O)C(CC)C2OC3(C=CC(O)C4(CCC(C)(C5CCC(O)(CC)C(C)O5)O4)O3)C(C)CC2C)C(C)CC1C (centres unmarked) [A-28086 factor A],pKa,[1],7.9
same,zone of inhibition at 1000 µg/mL,Fusarium moniliforme,12 mm
same,MIC,M. synoviae,6.25 µg/mL
same,MIC,M. gallisepticum,12.5 µg/mL
same,MIC,M. hyorhinis,12.5 µg/mL
same,antiviral activity,[2],active
same,zone of inhibition at 1000 µg/mL,Candida tropicalis,14 mm
same,solubility in organic solvents,"[3]; methanol, ethanol, dimethylformamide, dimethyl sulfoxide, ethyl acetate, chloroform, acetone, benzene",soluble
same,solubility in nonpolar organic solvents,[3]; such as hexane,only slightly soluble
same,solubility in water,[3]; water,insoluble
same,MIC,M. hyosynoviae,6.25 µg/mL
same,zone of inhibition at 1000 µg/mL,Sarcina lutea ATCC9341,26 mm
same,MIC,M. hypopneumoniae,6.25 µg/mL
same,zone of inhibition at 1000 µg/mL,[4],17 mm
same,MIC,[5],16 µg/mL
same,MIC,Veillonella alcalescens,16 µg/mL
same,MIC,Actinomyces bovis,< 0.5 µg/mL
same,MIC,[6],8 µg/mL
same,MIC,[7],8 µg/mL
same,MIC,[8],< 0.5 µg/mL
same,MIC,Clostridium inocuum,< 0.5 µg/mL
same,MIC,Clostridium ramosum,4 µg/mL
same,MIC,[9],8 µg/mL
same,MIC,[10],16 µg/mL
same,MIC,Fusobacterium symbiosum,< 0.5 µg/mL
same,MIC,[11],2 µg/mL
same,MIC,[12],8 µg/mL
same,MIC,[13],2 µg/mL
same,MIC,Clostridium septicum,< 0.5 µg/mL
same,MIC,Eubacterium aerofaciens,1 µg/mL
same,MIC,Peptococcus anaerobius,< 0.5 µg/mL
same,zone of inhibition at 1000 µg/mL,[14],28 mm
same,"Ratio of Treated to Control, Molar % acetate",rumen flora,0.94
same,"Ratio of Treated to Control, Molar % butyrate",rumen flora,0.87
same,"Ratio of Treated to Control, Total VFA mM/1",rumen flora,1.26
same,MIC,Clostridium perfringens,< 0.5 µg/mL
same,zone of inhibition at 1000 µg/mL,Staphylococcus aureus,19 mm
same,Percent Improvement,sheep; 9 g per ton of feed,12%
same,Percent Improvement,sheep; 18 g per ton of feed,1%
same,zone of inhibition at 1000 µg/mL,[15],12 mm
same,LD50,[16],7.15 mg/kg
same,Average Lesion Score,Eimeria brunetti,1.2
same,Oocysts Passed Percent Reduction,Eimeria brunetti,58%
same,Percent Mortality,Eimeria brunetti,0%
same,Percent Weight Gain,Eimeria brunetti,88%
CCC(C(=O)OC)C1OC(C(C)C(O)C(C)C(=O)C(CC)C2OC3(C=CC(O)C4(CCC(C)(C5CCC(O)(CC)C(C)O5)O4)O3)C(C)CC2C)C(C)CC1C (centres unmarked) [A-28086-I],microbiological activity,[17],not microbiologically active
